In patent US8759520B2, “Compounds for treating cancer” (Boehringer Ingelheim International GmbH, priority 2008, dated 2014) one finds Kd and IC50 data, which are given here for eleven compounds.

A value given as a limit tells only on which side of the number the result lay.

The target of the first assay is T1, Bcl-2 (Homo sapiens, UniProt P10415).
T1 sequence (P10415 whole entry, species assumed): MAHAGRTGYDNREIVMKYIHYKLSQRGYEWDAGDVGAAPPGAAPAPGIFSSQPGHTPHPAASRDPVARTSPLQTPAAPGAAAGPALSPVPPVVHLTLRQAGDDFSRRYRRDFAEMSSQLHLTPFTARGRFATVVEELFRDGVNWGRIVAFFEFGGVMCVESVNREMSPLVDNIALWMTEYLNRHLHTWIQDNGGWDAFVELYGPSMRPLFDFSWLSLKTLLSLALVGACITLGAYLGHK
Experiment: not given
Particulars: reported by Wang and co-workers; read-out: equilibrium binding constant KD to Bcl-2 protein; cited from earlier work.
As to “BH3 domain derived peptide ligand, sequence GQVGRQLAIIGDDINR, fluorescently labelled for the assay”, the Kd – broadly, the free concentration of one partner at which half of the binding sites on the other are occupied at equilibrium, for simple one-to-one binding – is roughly 0.2 µM.

A further assay deals with T1, Bcl-2. In words: Homogeneous HTS assay for inhibitors of the Bcl-2 : Bak (72-87) BH3 domain interaction, fluorescence polarisation (2D-FIDA). It is filed as binding. Particulars: fluorescence polarisation, fluorescent labelled Bak BH3 domain derived peptide; read-out: IC50 [μM] Bcl-2. A general note: In fluorescence polarisation assays a small probe gives low polarisation when free and higher when bound to something large.
`N=c1n(CCCOc2ccc(F)cc2)c2ccccc2n1Cc1ccccc1` [Compound 97, 1-Benzyl-3-[3-(4-fluoro-phenoxy)-propyl]-1,3-dihydro-benzoimidazol-2-ylideneamine]: the IC50 (as a rule, the point on the concentration scale where inhibition reaches its midpoint) was in the range of 11 to 100 µM.

`CCCCCn1c(=N)n(CC(O)COc2ccccc2OC)c2ccccc21` (centres unmarked) [Compound 98, 1-(2-Imino-3-pentyl-2,3-dihydro-benzoimidazol-1-yl)-3-(2-methoxy-phenoxy)-propan-2-ol]: the IC50 was in the range of 11 to 100 µM.

For `Cc1ccc(OCC(O)Cn2c(=N)n(Cc3ccccc3)c3ccccc32)cc1` (centres unmarked) [Compound 99, 1-(3-Benzyl-2-imino-2,3-dihydro-benzoimidazol-1-yl)-3-p-tolyloxy-propan-2-ol], the half-inhibitory concentration (IC50) lay in the range of 11 to 100 µM.

Consider `Cc1ccc(Cn2c(=N)n(CC(O)COc3ccccc3)c3ccccc32)cc1` (centres unmarked) [Compound 100, 1-[2-Imino-3-(4-methyl-benzyl)-2,3-dihydro-benzoimidazol-1-yl]-3-phenoxy-propan-2-ol], for which the IC50 is 11 to 100 µM.

As to `CCCCCCn1c(=N)n(CC(O)COc2ccccc2OC)c2ccccc21` (centres unmarked) [Compound 101, 1-(3-Hexyl-2-imino-2,3-dihydro-benzoimidazol-1-yl)-3-(2-methoxy-phenoxy)-propan-2-ol], the IC50 lay in the range of 11 to 100 µM.

For `N=c1n(Cc2ccccc2Cl)c2ccccc2n1CC(O)COc1ccccc1` (centres unmarked) [Compound 102, 1-[3-(2-Chloro-benzyl)-2-imino-2,3-dihydro-benzoimidazol-1-yl]-3-phenoxy-propan-2-ol], the IC50 is greater than 100 µM.

Take `N=c1n(Cc2ccc(Cl)cc2)c2ccccc2n1CC(O)COc1ccccc1` (centres unmarked) [Compound 103, 1-[3-(4-Chloro-benzyl)-2-imino-2,3-dihydro-benzoimidazol-1-yl]-3-phenoxy-propan-2-ol]: the IC50 fell in the range of 11 to 100 µM.

On to `CC(C)(C)c1ccc(Cn2c(=N)n(CC(O)COc3ccccc3)c3ccccc32)cc1` (centres unmarked) [Compound 104, 1-[3-(4-tert-Butyl-benzyl)-2-imino-2,3-dihydro-benzoimidazol-1-yl]-3-phenoxy-propan-2-ol], for which the IC50 was 11 to 100 µM.

On to `N=c1n(Cc2ccc(Cl)cc2)c2ccccc2n1CC(O)COc1ccc(Cl)cc1` (centres unmarked) [Compound 105, 1-[3-(4-Chloro-benzyl)-2-imino-2,3-dihydro-benzoimidazol-1-yl]-3-(4-chloro-phenoxy)-propan-2-ol], for which the half-inhibitory concentration (IC50) fell in the range of 11 to 100 µM.

Take `N=c1n(Cc2ccccc2)c2ccccc2n1CC(O)COc1ccc(Cl)cc1Cl` (centres unmarked) [Compound 106, 1-(3-Benzyl-2-imino-2,3-dihydro-benzoimidazol-1-yl)-3-(2,4-dichloro-phenoxy)-propan-2-ol]: the IC50 fell in the range of 11 to 100 µM.
